The results in this text go back to US10590086B2, “Pharmaceutical compound” (IOmet Pharma Ltd., priority 2014, dated 2020).

Assay [1] concerns the target T1, IDO (Homo sapiens, UniProt P14902). The assay can be described thus: hIDO biochemical coupled assay. The note with it: 45 μM L-tryptophan, read-out: hIDO biochemical assay pIC50 (converted).
Assay [2] deals with T2, TDO (Homo sapiens, UniProt P48775). The assay is described as follows: hTDO biochemical coupled assay. The note with it: 330 μM L-tryptophan; for IC50: read-out: hTDO biochemical assay pIC50 (converted).
T2 sequence (P48775 whole entry): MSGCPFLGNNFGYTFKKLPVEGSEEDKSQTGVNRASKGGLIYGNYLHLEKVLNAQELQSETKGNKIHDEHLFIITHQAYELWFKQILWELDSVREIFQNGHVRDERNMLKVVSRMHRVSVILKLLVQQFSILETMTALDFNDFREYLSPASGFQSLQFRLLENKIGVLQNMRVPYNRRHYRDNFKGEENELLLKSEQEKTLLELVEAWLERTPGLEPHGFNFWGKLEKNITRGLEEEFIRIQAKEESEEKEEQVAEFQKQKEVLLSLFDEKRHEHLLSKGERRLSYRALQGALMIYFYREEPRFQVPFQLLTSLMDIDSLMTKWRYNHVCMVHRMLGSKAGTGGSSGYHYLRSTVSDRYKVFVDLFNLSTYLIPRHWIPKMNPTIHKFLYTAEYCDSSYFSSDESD
Assay [3] concerns the target T1, IDO. The assay is described as follows: SKOV3 kynurenine cell-based assay (IDO induced by IFN-γ). Further details: IDO expression was induced in the SKOV3 cells by the addition of 500 ng/ml IFN-γ; endogenous in cells; host or cells: SKOV3 (human ovarian adenocarcinoma), induced with IFN-γ. Conditions: 48 hours, read-out: SKOV3 Kynurenine cell based assay pIC50 (converted). The method, boiled down: (§1)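 A172 glioblastoma cells (TDO; 30,000/well) and SKOV3 ovarian cells (IDO induced with 500 ng/ml IFN-γ; 40,000/well) were grown in phenol red-free RPMI with 10% FCS, 2 mM L-glutamine and 500 μM L-tryptophan. They were incubated ±compound for 48 hours at 37 °C. Supernatant kynurenine was read with Ehrlich's reagent (5 min) at […] absorbance.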

Assay [4] has as its target T2, TDO. The assay can be described thus: A172 kynurenine cell-based assay. Conditions: A172 human glioblastoma cells, 48 hours, read-out: A172 Kynurenine cell based assay pIC50 (converted). Further details: This assay utilised cancer cells which expressed either TDO or IDO; endogenous in cells; host or cells: A172 (human glioblastoma). The procedure, abridged:
as §1

The mark [5] stands for this setting: SKOV3 human ovarian adenocarcinoma cells, 500 ng/ml IFN-γ, 500 μM L-tryptophan.
Where [6] appears, read: SKOV3 cells, IDO induced by 500 ng/ml IFN-γ.

T1 sequence (P14902 whole entry): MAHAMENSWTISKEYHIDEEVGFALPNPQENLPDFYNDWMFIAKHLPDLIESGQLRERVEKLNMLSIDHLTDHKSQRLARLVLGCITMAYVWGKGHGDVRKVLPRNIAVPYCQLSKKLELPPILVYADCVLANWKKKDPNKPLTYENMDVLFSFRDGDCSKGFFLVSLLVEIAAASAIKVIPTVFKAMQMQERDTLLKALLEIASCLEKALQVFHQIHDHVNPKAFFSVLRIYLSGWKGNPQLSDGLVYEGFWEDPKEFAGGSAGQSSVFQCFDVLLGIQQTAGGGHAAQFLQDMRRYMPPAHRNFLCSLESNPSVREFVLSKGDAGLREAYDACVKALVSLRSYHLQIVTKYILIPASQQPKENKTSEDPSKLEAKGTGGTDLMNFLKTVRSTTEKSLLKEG

Take `O=C1N(c2ccccc2)CNC12CCN(c1cc(Cl)cc3[nH]ncc13)CC2` [Compound 422]: the IC50 on IDO [1] (17 minutes, room temperature) was 3.24 to 31.6 µM; on TDO [2] (17 minutes, room temperature) it was < 3.16 µM; on IDO [3] (setting [5]), < 3.16 µM; on TDO [4] (500 μM L-tryptophan), < 3.16 µM.
For `CC(=O)N(C)CC1CCCN(c2cc(Cl)cc3[nH]ncc23)C1` (stereo not shown) [Compound 286], the IC50 was > 100 µM on IDO [1] (17 minutes, room temperature); < 3.16 µM at TDO [2] (17 minutes, room temperature); 3.24 to 31.6 µM on IDO [3] (setting [5]); 3.24 to 31.6 µM on TDO [4] (500 μM L-tryptophan).
Regarding `O=C1CC2(CCN(c3cc(Cl)cc4[nH]ncc34)CC2)CN1` [Compound 280], the IC50 at IDO [1] (17 minutes, room temperature) was 3.24 to 31.6 µM; at TDO [2] (17 minutes, room temperature) it was < 3.16 µM; on IDO [3] (setting [5]) it was 3.24 to 31.6 µM; on TDO [4] (500 μM L-tryptophan), < 3.16 µM.
Consider `O=C1NCC2(CCN(c3cc(Cl)cc4[nH]ncc34)CC2)O1` [Compound 344], for which the IC50 on IDO [1] (17 minutes, room temperature) was 3.24 to 31.6 µM; at TDO [2] (17 minutes, room temperature), < 3.16 µM; at IDO [3] (setting [5]), 3.24 to 31.6 µM; at TDO [4] (500 μM L-tryptophan) it was < 3.16 µM.
`CS(=O)(=O)c1ccc(-c2cc(Cl)cc3[nH]ncc23)cc1Cl` [Compound 264]: the IC50 on IDO [1] (17 minutes, room temperature) is 3.24 to 31.6 µM; at TDO [2] (17 minutes, room temperature), < 3.16 µM; at IDO [3] (setting [5]), < 3.16 µM; on TDO [4] (500 μM L-tryptophan), < 3.16 µM.
As to `Clc1cc(N2CCN(c3cccnc3)CC2)c2cn[nH]c2c1` [Compound 375], the IC50 was > 100 µM at IDO [1] (17 minutes, room temperature); < 3.16 µM on TDO [2] (17 minutes, room temperature); 3.24 to 31.6 µM on IDO [3] (setting [5]); < 3.16 µM at TDO [4] (500 μM L-tryptophan).
Consider `CS(=O)(=O)N1CCN(c2cc(Cl)cc3[nH]ncc23)CC1` [Compound 28, 6-chloro-4-(4-(methylsulfonyl)piperazin-1-yl)-1H-indazole], for which the IC50 is 3.24 to 31.6 µM on IDO [1] (17 minutes, room temperature); 22.4 µM at IDO [1]; < 3.16 µM at TDO [2] (17 minutes, room temperature); 10.5 µM at IDO [3] (setting [6]); 3.24 to 31.6 µM at IDO [3] (setting [5]); < 3.16 µM on TDO [4] (500 μM L-tryptophan). Besides, on TDO [4], the IC50 is 0.339 µM. The molecule further returned a hTDO biochemical assay pIC50 on TDO [2] of 6.34.
Consider `CC1(C)CN(c2cc(Cl)cc3[nH]ncc23)CCN1S(C)(=O)=O` [Compound 45, 6-chloro-4-(3,3-dimethyl-4-(methylsulfonyl)piperazin-1-yl)-1H-indazole], for which the IC50 was < 3.16 µM at IDO [1] (17 minutes, room temperature); 0.447 µM at IDO [1]; < 3.16 µM on TDO [2] (17 minutes, room temperature); 0.263 µM at TDO [2]; 0.372 µM on IDO [3] (setting [6]); < 3.16 µM at IDO [3] (setting [5]). Also, the results for the IC50 on TDO [4] (500 μM L-tryptophan) and at TDO [4] were < 3.16 µM and 0.01 µM, respectively.
For the molecule `CC(=O)NC1CCN(c2cc(Cl)cc3[nH]ncc23)C1` (stereo not shown) [Compound 198], the IC50 on IDO [1] (17 minutes, room temperature) is 3.24 to 31.6 µM; at TDO [2] (17 minutes, room temperature), < 3.16 µM; on IDO [3] (setting [5]), 3.24 to 31.6 µM; at TDO [4] (500 μM L-tryptophan), < 3.16 µM.
Turning to `CC(=O)Nc1ccc(-c2cc(Cl)cc3[nH]ncc23)cc1` [Compound 246], the IC50 at IDO [1] (17 minutes, room temperature) was > 100 µM; on TDO [2] (17 minutes, room temperature), < 3.16 µM; on IDO [3] (setting [5]), 3.24 to 31.6 µM; on TDO [4] (500 μM L-tryptophan), < 3.16 µM.
Consider `CC(=O)N(C)C1CCN(c2cc(Cl)cc3[nH]ncc23)C1` (stereo not shown) [Compound 278], for which the IC50 was 32.4 to 100 µM at IDO [1] (17 minutes, room temperature); < 3.16 µM at TDO [2] (17 minutes, room temperature); 3.24 to 31.6 µM on IDO [3] (setting [5]); < 3.16 µM at TDO [4] (500 μM L-tryptophan).
Regarding `CNC(=O)c1ccc(C2CCN(c3cc(Cl)cc4[nH]ncc34)CC2)cc1` [Compound 440], the IC50 on IDO [1] (17 minutes, room temperature) was 3.24 to 31.6 µM; at TDO [2] (17 minutes, room temperature), < 3.16 µM; at IDO [3] (setting [5]), 3.24 to 31.6 µM; at TDO [4] (500 μM L-tryptophan), < 3.16 µM.
On to `O=S(=O)(c1ccccc1)N1CCN(c2cccc3[nH]ncc23)CC1` [Compound 15], for which the IC50 is > 100 µM on IDO [1] (17 minutes, room temperature); 32.4 to 100 µM on TDO [2] (17 minutes, room temperature); 32.4 to 100 µM on IDO [3] (setting [5]); 3.24 to 31.6 µM at TDO [4] (500 μM L-tryptophan).
For the molecule `CC(=O)Nc1cc(N2CCN(S(C)(=O)=O)C(C)(C)C2)c2cn[nH]c2c1` [Compound 312], the IC50 at IDO [1] (17 minutes, room temperature) is > 100 µM; at TDO [2] (17 minutes, room temperature) it was > 100 µM; at IDO [3] (setting [5]), > 100 µM; on TDO [4] (500 μM L-tryptophan) it was 3.24 to 31.6 µM.
Consider `OC1(c2cc(Cl)cc3[nH]ncc23)CCC(F)(F)CC1` [Compound 428], for which the IC50 is 3.24 to 31.6 µM at IDO [1] (17 minutes, room temperature); < 3.16 µM on TDO [2] (17 minutes, room temperature); 3.24 to 31.6 µM on IDO [3] (setting [5]); < 3.16 µM on TDO [4] (500 μM L-tryptophan).
As for `CS(=O)(=O)c1ccc(-c2cc(Cl)cc3[nH]ncc23)c(F)c1` [Compound 297], the IC50 was 3.24 to 31.6 µM at IDO [1] (17 minutes, room temperature); < 3.16 µM on TDO [2] (17 minutes, room temperature); < 3.16 µM at IDO [3] (setting [5]); < 3.16 µM on TDO [4] (500 μM L-tryptophan).
As to `CN1CCN(c2cc(Cl)cc3[nH]ncc23)CC1=O` [Compound 332], the IC50 was > 100 µM at IDO [1] (17 minutes, room temperature); < 3.16 µM at TDO [2] (17 minutes, room temperature); > 100 µM on IDO [3] (setting [5]); < 3.16 µM at TDO [4] (500 μM L-tryptophan).
